Legend:
HPK1 = HPK1 (Homo sapiens, UniProt Q92918); experiment: HPK1 kinase activity inhibition test (ADP-Glo, luminescence); type: biochemical; conditions: 2 μM ATP, 5 nM HPK1, read-out: IC50, inhibitory effects on HPK1 kinase activity
Method: The kinase activity of HPK1 is manifested as activity of autophosphorylation and phosphorylation of downstream substrates. In the process of autophosphorylation, additional substrates are not required, and ATP is consumed to generate ADP. The amount of the product is measured by ADP-Glo reagent and luminescence method to reflect kinase activity.
(§1) Tested compounds: compounds prepared in the Examples of this invention.
Preparation of compound stock solution: dissolve the test compound in 100% DMSO to make a 10 mM stock solution;
Preparation of 4×Kinase Reaction Buffer:
Preparation of 2×HPK1 Kinase Solution:
Preparation of 4×ATP Mixture:
Dilute the stock solution of the test compound by 5 times with 100% DMSO, make a 4-fold equal dilution in a 96-well dilution plate, add 1 μL of the compound to 49 μL of kinase reaction buffer, and shake on a microplate shaker for 20 minutes. Transfer 2 μL of 2×HPK1 kinase solution to 384 reaction plate, add 1 μL of the test compound to the 384 reaction plate (Greiner, Cat #784075), centrifuge for 1 minute (1000 rpm/min), incubate at 25° C. for 10 minutes. Transfer 1 μL of the 4×ATP mixture to a 384 reaction plate, centrifuge for 1 minute (1000 rpm/min), and incubate at 25° C. for 60 minutes. In the reaction system, the final concentration of DMSO is 0.5%. Transfer 4 μL of ADP-Glo to a 384 reaction plate, centrifuge for 1 minute (1000 rpm/min), and incubate at 25° C. for 40 minutes. Transfer 8 μL detection solution to a 384 reaction plate, centrifuge for 1 minute (1000 rpm/min), and incubate at 25° C. for 40 minutes. The […] is read using a Biotek multi-function plate reader, and the IC50 (half inhibitory concentration) of the compound is obtained using a four-coefficient nonlinear fitting formula.

KDR = KDR (Homo sapiens, UniProt P35968); experiment: KDR kinase activity inhibition test (HTRF); type: biochemical; conditions: read-out: IC50, inhibitory effects on KDR kinase activity
Method: as §1
(§2) Prepare compound stock solution: dissolve the test compound in 100% DMSO to make a 10 mM stock solution. Dilute the stock solution of the test compound by 5 times with 100% DMSO, make a 4-fold equal dilution in a 96-well dilution plate, add 1 μL of the compound to 39 μL of kinase reaction buffer (1×kinase buffer, 5 mM MgCl2, 1 mM DTT), and shake on a microplate shaker for 20 minutes. 4×Positive control (4 μL of positive compound solution of the starting concentration, add 196 μL of kinase buffer) and 4×negative control (4 μL of 100% DMSO, add 196 μL of kinase buffer).
(§3) (1) Use 1×kinase reaction buffer to prepare 2.5×KDR kinase solution (250 μM), transfer 2 μL of the kinase solution to the 384 reaction plate, and add 1 μL of the test compound solution of gradient concentration to the 384 reaction plate (Greiner, Cat #784075), centrifuge for 1 minute (1000 rpm), and incubate at 25° C. for 10 minutes.
(§4) (2) Use 1×kinase reaction buffer to prepare 2.5×TK-substrate-biotin (2.5 μM) and 2.5×ATP (2.5 μM), mix well, and add 2 μL of the TK-substrate-biotin/ATP solution to the 384 reaction plate, centrifuge for 30 seconds (1000 rpm), and incubate at 25° C. for 40 minutes.
(§5) (3) Use HTRF detection buffer to prepare 2×Sa-XL 665 (125 nM) and 1×TK-antibody-Cryptate. Add 5 μL of a mixture of Sa-XL 665 and TK-antibody-Cryptate solutions to each well, centrifuge for 30 seconds (1000 rpm), and react at room temperature for 1 hour.
(§6) (4) The fluorescence signal is read using a Biotek multi-function plate reader, and the IC50 (half inhibitory concentration) of the compound is obtained using a four-coefficient nonlinear fitting formula.

Human Jurkat-E6-1 cells = experiment: Detection of IL-2 production by Jurkat cells using ELISA; type: cell-based; conditions: anti-CD3/anti-CD28 stimulation 24 hours, read-out: Percentage of the amount of IL-2 secreted by compound treated vs DMSO-treated cells; for activity at 1 µM: tested compound 1.0 μM; for activity at 0.33 µM: tested compound 0.33 μM
Method: as §1
Human Jurkat-E6-1 cells were incubated with various concentrations of tested compounds for 30 minutes in a humidified incubator at 37° C. and 5% CO2. Cells were transferred to cell culture plates pre-coated with anti-human CD3 antibody, then soluble anti-human CD28 antibody was added, and cells were stimulated for 24 hours at 37° C. and 5% CO2 in a humidified incubator. The cell culture medium was collected after centrifugation, and was then transferred to a 96-well transparent microtiter plate (Thermo) pre-coated with anti-human IL-2 antibody, incubated at room temperature for 2 hours with gently shaking, washed with washing buffer for 4 times, and then followed the ELISA MAX Deluxe Set Human IL-2 (BioLegend) kit procedures, used a microplate reader (Molecular Device, i3X) to read the GD value at 450 nm. The best standard curve was selected by the microplate reader application software, and the corresponding concentration was calculated according to the GD value of the standard. Results are expressed as a percentage (%) of the amount of IL-2 secreted by compound-treated vs DMSO-treated cells.

FLT3 = target: T1, FLT3 (Homo sapiens, UniProt P36888); experiment: FLT3 kinase activity inhibition test (HTRF); type: biochemical; conditions: read-out: IC50, inhibitory effects on FLT3 kinase activity
T1 sequence (P36888 27-993): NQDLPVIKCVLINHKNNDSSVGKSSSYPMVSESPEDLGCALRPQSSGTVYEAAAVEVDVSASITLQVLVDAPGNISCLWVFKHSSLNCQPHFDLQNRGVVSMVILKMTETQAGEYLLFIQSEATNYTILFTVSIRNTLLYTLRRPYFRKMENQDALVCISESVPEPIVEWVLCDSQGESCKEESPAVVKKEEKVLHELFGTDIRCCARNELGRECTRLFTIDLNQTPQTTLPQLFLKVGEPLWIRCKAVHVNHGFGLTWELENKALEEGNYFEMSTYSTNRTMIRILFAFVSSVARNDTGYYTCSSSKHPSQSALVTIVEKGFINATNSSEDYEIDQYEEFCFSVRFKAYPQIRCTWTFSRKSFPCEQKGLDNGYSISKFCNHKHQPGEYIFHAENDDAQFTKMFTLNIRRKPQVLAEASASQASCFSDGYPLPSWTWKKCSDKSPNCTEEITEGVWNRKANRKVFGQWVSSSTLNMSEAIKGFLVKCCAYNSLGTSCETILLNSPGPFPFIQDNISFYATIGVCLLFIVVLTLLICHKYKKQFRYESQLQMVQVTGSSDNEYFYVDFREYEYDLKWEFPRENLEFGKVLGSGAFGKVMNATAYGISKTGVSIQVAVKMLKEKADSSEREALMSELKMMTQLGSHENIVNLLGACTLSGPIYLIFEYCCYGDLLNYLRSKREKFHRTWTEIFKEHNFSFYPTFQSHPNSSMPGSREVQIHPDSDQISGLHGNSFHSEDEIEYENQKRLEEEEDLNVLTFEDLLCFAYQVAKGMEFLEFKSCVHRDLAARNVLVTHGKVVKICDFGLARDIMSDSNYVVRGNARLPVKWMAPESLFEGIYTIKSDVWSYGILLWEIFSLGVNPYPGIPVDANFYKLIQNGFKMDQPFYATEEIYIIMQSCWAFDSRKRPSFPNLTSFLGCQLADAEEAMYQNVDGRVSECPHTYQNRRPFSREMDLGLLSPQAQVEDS
Method: as §1, §2
as §3, with “2.5×FLT3” for “2.5×KDR”, “(160” for “(250”
as §4, §5, §6

HPK1, sequence (Q92918 whole entry): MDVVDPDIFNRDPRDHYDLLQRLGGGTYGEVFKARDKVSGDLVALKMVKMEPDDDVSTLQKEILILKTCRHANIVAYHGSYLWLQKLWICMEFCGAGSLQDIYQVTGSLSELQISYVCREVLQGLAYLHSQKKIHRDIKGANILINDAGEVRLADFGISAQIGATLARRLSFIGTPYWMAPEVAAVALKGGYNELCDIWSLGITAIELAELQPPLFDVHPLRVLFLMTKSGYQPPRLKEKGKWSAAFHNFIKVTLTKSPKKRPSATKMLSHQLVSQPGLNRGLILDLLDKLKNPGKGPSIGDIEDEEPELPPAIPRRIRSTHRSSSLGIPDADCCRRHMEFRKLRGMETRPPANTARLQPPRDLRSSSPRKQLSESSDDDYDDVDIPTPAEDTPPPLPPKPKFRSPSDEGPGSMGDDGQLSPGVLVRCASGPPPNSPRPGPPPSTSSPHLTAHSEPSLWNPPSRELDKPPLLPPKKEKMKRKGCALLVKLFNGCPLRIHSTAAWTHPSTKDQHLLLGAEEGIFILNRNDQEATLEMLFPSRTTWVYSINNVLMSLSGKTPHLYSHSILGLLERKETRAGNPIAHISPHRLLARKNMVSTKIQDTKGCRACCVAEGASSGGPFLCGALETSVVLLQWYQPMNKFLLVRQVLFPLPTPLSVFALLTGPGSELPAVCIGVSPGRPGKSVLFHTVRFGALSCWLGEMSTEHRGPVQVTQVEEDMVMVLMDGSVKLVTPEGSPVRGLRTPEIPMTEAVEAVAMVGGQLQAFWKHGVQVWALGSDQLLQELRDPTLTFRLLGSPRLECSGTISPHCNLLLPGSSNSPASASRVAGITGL
KDR, sequence (P35968 20-1356): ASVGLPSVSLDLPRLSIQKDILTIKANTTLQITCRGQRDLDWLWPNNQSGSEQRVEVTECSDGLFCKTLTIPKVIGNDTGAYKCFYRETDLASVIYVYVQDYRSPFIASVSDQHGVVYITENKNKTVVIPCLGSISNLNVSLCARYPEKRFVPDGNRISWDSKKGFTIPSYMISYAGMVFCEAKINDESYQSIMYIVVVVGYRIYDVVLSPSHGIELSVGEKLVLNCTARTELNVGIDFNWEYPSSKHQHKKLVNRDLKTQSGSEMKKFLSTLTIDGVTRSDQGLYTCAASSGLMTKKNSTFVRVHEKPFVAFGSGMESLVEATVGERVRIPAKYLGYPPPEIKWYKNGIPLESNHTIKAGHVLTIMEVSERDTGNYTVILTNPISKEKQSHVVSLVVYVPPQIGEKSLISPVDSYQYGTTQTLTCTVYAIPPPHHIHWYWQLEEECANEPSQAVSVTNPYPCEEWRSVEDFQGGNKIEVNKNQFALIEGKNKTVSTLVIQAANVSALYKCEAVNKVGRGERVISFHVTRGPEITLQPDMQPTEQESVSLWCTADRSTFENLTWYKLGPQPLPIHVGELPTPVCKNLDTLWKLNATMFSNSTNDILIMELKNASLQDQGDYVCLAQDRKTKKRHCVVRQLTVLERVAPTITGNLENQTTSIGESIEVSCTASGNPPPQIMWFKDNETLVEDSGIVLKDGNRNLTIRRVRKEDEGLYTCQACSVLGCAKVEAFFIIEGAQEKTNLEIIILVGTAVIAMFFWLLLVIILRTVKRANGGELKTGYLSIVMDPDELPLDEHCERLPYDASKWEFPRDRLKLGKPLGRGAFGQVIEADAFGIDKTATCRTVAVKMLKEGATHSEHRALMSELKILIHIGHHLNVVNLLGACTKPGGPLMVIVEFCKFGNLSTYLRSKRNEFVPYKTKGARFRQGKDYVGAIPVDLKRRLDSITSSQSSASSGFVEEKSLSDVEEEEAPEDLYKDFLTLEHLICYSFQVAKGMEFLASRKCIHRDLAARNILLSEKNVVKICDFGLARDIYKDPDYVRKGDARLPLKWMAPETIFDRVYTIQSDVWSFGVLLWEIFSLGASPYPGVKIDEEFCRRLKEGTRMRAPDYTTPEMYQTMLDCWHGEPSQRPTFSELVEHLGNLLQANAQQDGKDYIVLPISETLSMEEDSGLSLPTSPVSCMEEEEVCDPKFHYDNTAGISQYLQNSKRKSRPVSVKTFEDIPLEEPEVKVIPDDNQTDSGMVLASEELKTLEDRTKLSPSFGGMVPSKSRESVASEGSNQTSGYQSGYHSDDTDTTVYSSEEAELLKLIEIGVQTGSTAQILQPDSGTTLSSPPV

| Compound | IC50 (HPK1) | IC50 (KDR) | IC50 (FLT3) | activity at 1 µM (Human Jurkat-E6-1 cells) | activity at 0.33 µM (Human Jurkat-E6-1 cells) | activity at 3 µM (Human Jurkat-E6-1 cells; tested compound 3.0 μM) |
| --- | --- | --- | --- | --- | --- | --- |
| Fc1cccc2c1-c1cc3c(n[nH]c3cn1)-c1ccc(N3CCN4CCOC[C@H]4C3)c(c1)OCCCO2 [Compound 102, 5-[(9aR)-octahydropyrazino[2,1-c][1,4]oxazin-8-yl]-16-fluoro-7,11-dioxa-19,22,23-triazapentacyclo[16.5.2.1^2,6.0^12,17.0^21,24]hexacosa-1(23),2,4,6(26),12(17),13,15,18,20,24-decaene] | ≤ 5 nM | ≤ 5 nM | ≤ 5 nM | 702% |  |  |
| CN1C2CCC1CN(c1ccc3cc1OCCCOc1cccc(F)c1-c1cc4c-3n[nH]c4cn1)C2 [Compound 144, 16-fluoro-5-{8-methyl-3,8-diazabicyclo[3.2.1]octan-3-yl}-7,11-dioxa-19,22,23-triazapentacyclo[16.5.2.1^2,6.0^12,17.0^21,24]hexacosa-1(23),2,4,6(26),12(17),13,15,18,20,24-decaene] | ≤ 5 nM | ≤ 5 nM | ≤ 5 nM | 517% |  |  |
| CN1C2CCC1CN(c1ccc3cc1OCCCOCc1cccc(F)c1-c1cc4c-3n[nH]c4cn1)C2 [Compound 18, 17-fluoro-5-{8-methyl-3,8-diazabicyclo[3.2.1]octan-3-yl}-7,11-dioxa-20,23,24-triazapentacyclo[17.5.2.1^2,6.0^13,18.0^22,25]heptacosa-1(24),2,4,6(27),13(18),14,16,19,21,25-decaene] | ≤ 5 nM |  |  |  | 486% |  |
| Fc1cccc2c1-c1cc3c(n[nH]c3cn1)-c1ccc(N3CC4CC(C3)N4C3COC3)c(c1)OCCCO2 [Compound 146, 16-fluoro-5-[6-(oxetan-3-yl)-3,6-diazabicyclo[3.1.1]heptan-3-yl]-7,11-dioxa-19,22,23-triazapentacyclo[16.5.2.1^2,6.0^12,17.0^21,24]hexacosa-1(23),2,4,6(26),12(17),13,15,18,20,24-decaene] | ≤ 5 nM |  |  | 476% |  |  |
| Fc1cccc2c1-c1cc3c(n[nH]c3cn1)-c1ccc(N3CC4CC(C3)N4CC3CCOCC3)c(c1)OCCCO2 [Compound 147, 16-fluoro-5-{6-[(oxan-4-yl)methyl]-3,6-diazabicyclo[3.1.1]heptan-3-yl}-7,11-dioxa-19,22,23-triazapentacyclo[16.5.2.1^2,6.0^12,17.0^21,24]hexacosa-1(23),2,4,6(26),12(17),13,15,18,20,24-decaene] | ≤ 5 nM |  |  |  | 429% |  |

More lines, main results first:

| IC50 (HPK1) | IC50 (KDR) | IC50 (FLT3) | Compound | activity at 1 µM (Human Jurkat-E6-1 cells) | activity at 0.33 µM (Human Jurkat-E6-1 cells) | activity at 3 µM (Human Jurkat-E6-1 cells; tested compound 3.0 μM) |
| --- | --- | --- | --- | --- | --- | --- |
| ≤ 5 nM | ≤ 5 nM | ≤ 5 nM | CN1C[C@@H]2C[C@H]1CN2c1ccc2cc1OCCCOCc1cccc(F)c1-c1cc3c-2n[nH]c3cn1 [Compound 151, 17-fluoro-5-[(1S,4S)-5-methyl-2,5-diazabicyclo[2.2.1]heptan-2-yl]-7,11-dioxa-20,23,24-triazapentacyclo[17.5.2.1^2,6.0^13,18.0^22,25]heptacosa-1(24),2,4,6(27),13(18),14,16,19,21,25-decaene] | 416% |  |  |
| ≤ 5 nM | 5 to 50 nM | ≤ 5 nM | Fc1cccc2c1-c1cc3c(n[nH]c3cn1)-c1ccc(N3CCNCC3)c(c1)OCCCOC2 [Compound 10, 17-fluoro-5-(piperazin-1-yl)-7,11-dioxa-20,23,24-triazapentacyclo[17.5.2.1^2,6.0^13,18.0^22,25]heptacosa-1(24),2(27),3,5,13,15,17,19,21,25-decaene] | 298% |  |  |
| ≤ 5 nM | 5 to 50 nM | ≤ 5 nM | OCCN1CCN(c2ccc3cc2OCCCOCc2cccc(F)c2-c2cc4c-3n[nH]c4cn2)CC1 [Compound 12, 17-fluoro-5-(4-(2-hydroxyethyl)piperazin-1-yl)-7,11-dioxa-20,23,24-triazapentacyclo[17.5.2.1^2,6.0^13,18.0^22,25]heptacosa-1(24),2(27),3,5,13,15,17,19,21,25-decaene] |  |  |  |
| ≤ 5 nM |  |  | CN1CCN(c2ccc3cc2OCCCOCc2cccc(F)c2-c2cc4c-3n[nH]c4cn2)CC1(C)C [Compound 17, 17-fluoro-5-(3,3,4-trimethylpiperazin-1-yl)-7,11-dioxa-20,23,24-triazapentacyclo[17.5.2.1^2,6.0^13,18.0^22,25]heptacosa-1(24),2,4,6(27),13(18),14,16,19,21,25-decaene] |  | 439% |  |
| 5 to 50 nM |  |  | Fc1cccc2c1-c1cc3c(n[nH]c3cn1)-c1cnc(N3CCOCC3)c(c1)OCCCO2 [Compound 4, 16-fluoro-5-(morpholin-4-yl)-7,11-dioxa-4,19,22,23-tetraazapentacyclo[16.5.2.1^2,6.0^12,17.0^21,24]hexacosa-1(23),2(26),3,5,12,14,16,18,20,24-decaene] |  |  | 801% |

— patent publication US20240383911A1, “AZAINDAZOLE MACROCYCLE COMPOUNDS AND USES THEREOF” (BROADENBIO CO., LTD, priority 2021, published 2024)
